As a reminder, the Ki is the dissociation constant of the complex between target and ligand, obtained from inhibition or displacement. A lower Ki goes with higher affinity.

The target in one assay is T1, A1 AR (Homo sapiens, UniProt P30542).
T1 sequence (P30542 1-326): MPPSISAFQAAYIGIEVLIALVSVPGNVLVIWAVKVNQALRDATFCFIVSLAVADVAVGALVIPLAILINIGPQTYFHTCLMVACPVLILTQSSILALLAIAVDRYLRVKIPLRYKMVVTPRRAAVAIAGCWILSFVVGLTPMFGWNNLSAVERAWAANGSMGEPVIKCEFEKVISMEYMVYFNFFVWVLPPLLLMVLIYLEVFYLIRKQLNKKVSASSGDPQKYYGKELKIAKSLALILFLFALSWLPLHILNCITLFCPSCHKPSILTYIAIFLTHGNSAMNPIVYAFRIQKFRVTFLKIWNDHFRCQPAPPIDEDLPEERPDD
The experiment in a line: Radioligand binding at human A1 AR.

A further assay addresses A2A AR (Homo sapiens, UniProt P29274). The experiment in a line: Radioligand binding at human A2A AR. The settings on record: A2A vs A1 and A3 ARs.

Chain of A2A AR (P29274 whole entry): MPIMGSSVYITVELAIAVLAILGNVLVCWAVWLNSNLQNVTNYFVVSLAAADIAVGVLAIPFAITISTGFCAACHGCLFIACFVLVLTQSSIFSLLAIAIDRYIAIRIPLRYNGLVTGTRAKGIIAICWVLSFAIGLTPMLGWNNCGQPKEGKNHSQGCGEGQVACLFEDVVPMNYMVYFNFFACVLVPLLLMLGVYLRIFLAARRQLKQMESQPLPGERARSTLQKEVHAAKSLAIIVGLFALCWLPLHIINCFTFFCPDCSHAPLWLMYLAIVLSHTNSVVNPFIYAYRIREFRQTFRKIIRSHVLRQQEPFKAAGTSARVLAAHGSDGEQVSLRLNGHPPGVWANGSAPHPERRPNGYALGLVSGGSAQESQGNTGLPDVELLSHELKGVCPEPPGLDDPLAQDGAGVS

For the molecule `Nc1nc2c(cnn2CCCc2ccc(OCCF)cc2)c2nc(-c3ccco3)nn12` [Compound 5], the Ki on A1 AR is around 10 µM. The “Selectivity for the A2A AR in comparison to the A1 and A3 ARs” value at A2A AR is recorded as “highly selective”.
